The target in one experiment is KCNMA1/KCNMB4 (Homo sapiens, UniProt Q12791+Q86W47). Nature of the experiment: Inhibition of human BK alpha/beta4 channel expressed in HEK293T cells assessed as K+ outward current fraction at 10 uM at -80 mV holding potential by whole cell patch clamp method relative to control. The experiment is classed as cell-based. (In general: The patch-clamp technique gives a direct electrical read-out from membranes.)

The target in experiment [1] is T1, Calcium-activated potassium channel subunit beta-4 (Homo sapiens, UniProt Q86W47).
T1 sequence (Q86W47 whole entry): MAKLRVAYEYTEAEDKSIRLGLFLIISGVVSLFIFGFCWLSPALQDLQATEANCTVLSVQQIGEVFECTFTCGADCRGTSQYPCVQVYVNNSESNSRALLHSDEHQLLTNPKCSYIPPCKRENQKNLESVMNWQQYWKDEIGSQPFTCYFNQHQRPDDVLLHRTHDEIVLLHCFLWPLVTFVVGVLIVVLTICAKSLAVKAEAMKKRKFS
The experiment is described as follows: Binding affinity to NT-495 fluorophore reagent labelled human BK beta4 (45 to 166 residues) incubated for 30 mins by microscale thermophoresis assay. Particulars: read-out: Kd. Background: MST reads how a fluorescent partner responds to local heating, with and without ligand.

The species entered for experiment [2] is Rattus norvegicus. The experiment is described as follows: Effect on neuronal network in PTZ-induced epileptic seizures Sprague-Dawley rat model assessed as lowered PSD at delta wave band compound infused into hippocampal region and 10 mins later injected with PTZ and measured after 2 hrs by power spectral density analysis. The experiment is classed as functional, organism-based.

The target in experiment [3] is T2, KCNMA1/KCNMB4 (Rattus norvegicus) (UniProt Q62976+Q9ESK8). The experiment is described as follows: Inhibition of BK alpha/beta-4 in PTZ-stimulated rat hippocampal pyramidal neurons assessed as slower decay of after hyperpolarization at 300 pA at -80mV holding potential measured after 10 mins by whole cell current clamp assay. Format: protein-complex assay.
For experiment [4], the species on record is Rattus norvegicus. The experiment is described as follows: Effect on neuronal network in PTZ-induced epileptic seizures Sprague-Dawley rat model assessed as reduced total PSD frequency waves compound infused into hippocampal region and 10 mins later injected with PTZ and measured after 2 hrs by power spectral density analysis. Format: functional, organism-based.

For experiment [5], the species on record is Rattus norvegicus. Nature of the experiment: Anticonvulsant activity against PTZ-induced epileptic seizures Sprague-Dawley rat model assessed as decrease in number of seizures at high stage (stage 4 and 5) compound infused into hippocampal region and 10 mins later injected with PTZ and measured for 2 hrs post-PTZ stimulation. The experiment is classed as functional, organism-based.

The species entered for experiment [6] is Rattus norvegicus. The experiment is described as follows: Inhibition of C-Fos expression in PTZ-induced epileptic seizures Sprague-Dawley rat model assessed as inhibition of FLI-positive granular neurons in DG region of ipsilateral hippocampus at 10 uM compound infused into hippocampal region and 10 mins later injected with PTZ and measured after 2 hrs by immunohistochemistry. Format: functional, organism-based.

The species named for experiment [7] is Rattus norvegicus. Nature of the experiment: Effect on neuronal network in PTZ-induced epileptic seizures Sprague-Dawley rat model assessed as lowered PSD at alpha wave band compound infused into hippocampal region and 10 mins later injected with PTZ and measured after 2 hrs by power spectral density analysis. Format: functional, organism-based.
The target of experiment [8] is T2, KCNMA1/KCNMB4 (Rattus norvegicus). The experiment is described as follows: Inhibition of BK alpha/beta-4 in PTZ-stimulated rat hippocampal pyramidal neurons assessed as larger action potential width at 300 pA current injection at -80mV holding potential measured after 10 mins by whole cell current clamp assay. The experiment is classed as protein-complex assay.

The species named for experiment [9] is Rattus norvegicus. Nature of the experiment: Anticonvulsant activity against PTZ-induced epileptic seizure Sprague-Dawley rat model assessed as reduction in mortality rate compound infused into hippocampal region and 10 mins later injected with PTZ and measured for 2 hrs post PTZ-stimulation. The experiment is classed as functional, organism-based.
Experiment [10] has as its target T2, KCNMA1/KCNMB4 (Rattus norvegicus). Nature of the experiment: Inhibition of BK alpha/beta-4 in PTZ-stimulated rat hippocampal pyramidal neurons assessed as increase in AHP size at 300 pA at -80mV holding potential measured after 10 mins by whole cell current clamp assay. The experiment is classed as protein-complex assay.
For experiment [11], the species on record is Rattus norvegicus. The experiment is described as follows: Effect on neuronal network in PTZ-induced epileptic seizures Sprague-Dawley rat model assessed as lowered PSD at gamma wave band compound infused into hippocampal region and 10 mins later injected with PTZ and measured after 2 hrs by power spectral density analysis. The experiment is classed as functional, organism-based.

The species entered for experiment [12] is Rattus norvegicus. The experiment is described as follows: Inhibition of field potential response in PTZ-induced epileptic seizure Sprague-Dawley rat model compound infused into hippocampal region and 10 mins later injected with PTZ and measured after 2 hrs by microarray electrode based analysis. Format: functional, organism-based.
For experiment [13], the species on record is Rattus norvegicus. Nature of the experiment: Inhibition of C-Fos expression in PTZ-induced epileptic seizures Sprague-Dawley rat model assessed as inhibition of FLI-positive granular neurons in DG region of contralateral hippocampus at 10 uM compound infused into hippocampal region and 10 mins later injected with PTZ and measured after 2 hrs by immunohistochemistry. Format: functional, organism-based.

Experiment [14] is filed under the species Rattus norvegicus. Nature of the experiment: Inhibition of C-Fos expression in PTZ-induced epileptic seizures Sprague-Dawley rat model assessed as inhibition of FLI-positive pyramidal neurons in CA3 region of contralateral hippocampus at 10 uM compound infused into hippocampal region and 10 mins later injected with PTZ and measured after 2 hrs by immunohistochemistry. Format: functional, organism-based.

For experiment [15], the species on record is Rattus norvegicus. The experiment is described as follows: Effect on neuronal network in PTZ-induced epileptic seizures Sprague-Dawley rat model assessed as lowered PSD at beta wave band compound infused into hippocampal region and 10 mins later injected with PTZ and measured after 2 hrs by power spectral density analysis. The experiment is classed as functional, organism-based.

The species entered for experiment [16] is Rattus norvegicus. The experiment is described as follows: Neuroprotective activity in PTZ-induced epileptic seizure Sprague-Dawley rat model assessed as inhibition of hippocampal destruction by measuring increase in Nissl stained pyramidal neurons in ipsilateral hippocampus CA3 region compound infused into hippocampal region and 10 mins later injected with PTZ and measured after 3 days by Nissl staining based microscopic analysis. The experiment is classed as functional, organism-based.

For experiment [17], the species on record is Rattus norvegicus. The experiment is described as follows: Inhibition of C-Fos expression in PTZ-induced epileptic seizures Sprague-Dawley rat model assessed as inhibition of FLI-positive pyramidal neurons in CA3 region of ipsilateral hippocampus at 10 uM compound infused into hippocampal region and 10 mins later injected with PTZ and measured after 2 hrs by immunohistochemistry. The experiment is classed as functional, organism-based.

The species named for experiment [18] is Rattus norvegicus. The experiment is described as follows: Neuroprotective activity in PTZ-induced epileptic seizure Sprague-Dawley rat model assessed as inhibition of hippocampal destruction by measuring increase in Nissl stained pyramidal neurons in contralateral hippocampus CA1 region compound infused into hippocampal region and 10 mins later injected with PTZ and measured after 3 days by Nissl staining based microscopic analysis. The experiment is classed as functional, organism-based.

The species named for experiment [19] is Rattus norvegicus. Nature of the experiment: Anticonvulsant activity against PTZ-induced epileptic seizure Sprague-Dawley rat model assessed as latency time of seizures compound infused into hippocampal region and 10 mins later injected with PTZ and measured for 2 hrs post PTZ-stimulation (reference value: 108.5 +/- 8.63 sec). Format: functional.
The species named for experiment [20] is Rattus norvegicus. The experiment is described as follows: Anticonvulsant activity against PTZ-induced epileptic seizure Sprague-Dawley rat model assessed as duration of seizure compound infused into hippocampal region and 10 mins later injected with PTZ and measured for 2 hrs post PTZ-stimulation (reference value: 376 +/- 76.43 sec). The experiment is classed as functional.

For experiment [21], the species on record is Rattus norvegicus. The experiment is described as follows: Neuroprotective activity in PTZ-induced epileptic seizure Sprague-Dawley rat model assessed as inhibition of hippocampal destruction by measuring increase in Nissl stained granular neurons in ipsilateral hippocampus DG region compound infused into hippocampal region and 10 mins later injected with PTZ and measured after 3 days by Nissl staining based microscopic analysis. Format: functional, organism-based.

For experiment [22], the species on record is Rattus norvegicus. The experiment is described as follows: Effect on neuronal network in PTZ-induced epileptic seizures Sprague-Dawley rat model assessed as lowered PSD at theta wave band compound infused into hippocampal region and 10 mins later injected with PTZ and measured after 2 hrs by power spectral density analysis. Format: functional, organism-based.

Calls of active or inactive are those of the source. No cut-off for these calls is given here.

Usually Kd stands for a measure of binding affinity in units of concentration. With `CC[C@H](C)[C@H](NC(=O)[C@H](CC(C)C)NC(=O)CNC(=O)[C@H](Cc1ccccc1)NC(=O)[C@H](CO)NC(=O)CN)C(=O)N[C@@H](CC(=O)O)C(=O)N[C@H](C(=O)N[C@@H](CCCCN)C(=O)N[C@H]1CSSC[C@@H]2NC(=O)[C@H](CCCCN)NC(=O)CNC(=O)[C@H](CCC(N)=O)NC(=O)CNC(=O)[C@H](C)NC(=O)CNC(=O)[C@H]([C@@H](C)O)NC(=O)[C@H](C(C)C)NC(=O)[C@H](CCCCN)NC(=O)[C@H](CCCCN)NC(=O)[C@@H]3CSSC[C@@H](C(=O)N[C@@H](Cc4ccc(O)cc4)C(=O)O)N[C@@H](CCCNC(=N)N)C(=O)[C@H](CSSC[C@H](NC(=O)[C@H](CCC(=O)O)NC(=O)[C@H](CO)NC(=O)[C@H](CO)NC(=O)[C@H](C)NC(=O)[C@H](Cc4ccccc4)NC1=O)C(=O)N[C@@H](Cc1c[nH]c4ccccc14)C(=O)N[C@@H]([C@@H](C)O)C(=O)N[C@@H](C)C(=O)N3)N[C@@H](CCC(N)=O)C(=O)NC(=O)[C@H](CC(N)=O)NC(=O)[C@H](CC(N)=O)NC(=O)[C@H](CCC(N)=O)NC2=O)C(C)C`, the Ratio at KCNMA1/KCNMB4 turned out to be 0.75. Also, the Kd in experiment [1] was determined as 109 mM.

As for `CC[C@H](C)[C@H](NC(=O)[C@H](CC(C)C)NC(=O)CNC(=O)[C@H](Cc1ccccc1)NC(=O)[C@H](CO)NC(=O)CN)C(=O)N[C@@H](CC(=O)O)C(=O)N[C@H](C(=O)N[C@@H](CCCCN)C(=O)N[C@H]1CSSC[C@@H]2NC(=O)[C@H](CCCCN)NC(=O)CNC(=O)[C@H](C)NC(=O)CNC(=O)[C@H](CO)NC(=O)CNC(=O)[C@H]([C@@H](C)O)NC(=O)[C@H](C(C)C)NC(=O)[C@H](CCCCN)NC(=O)[C@H](CCCCN)NC(=O)[C@@H]3CSSC[C@@H](C(=O)N[C@@H](Cc4ccc(O)cc4)C(=O)O)N[C@@H](CCCNC(=N)N)C(=O)[C@H](CSSC[C@H](NC(=O)[C@H](CCC(=O)O)NC(=O)[C@H](CO)NC(=O)[C@H](CO)NC(=O)[C@H](C)NC(=O)[C@H](Cc4ccccc4)NC1=O)C(=O)N[C@@H](Cc1c[nH]c4ccccc14)C(=O)N[C@@H]([C@@H](C)O)C(=O)N[C@@H](C)C(=O)N3)N[C@@H](CCC(N)=O)C(=O)NC(=O)[C@H](CC(N)=O)NC(=O)[C@H](CC(N)=O)NC(=O)[C@H](CCC(N)=O)NC2=O)C(C)C`, the Ratio at KCNMA1/KCNMB4 came to 0.74. For the same compound, the outcome in the experiment listed under Rattus norvegicus [2], in the experiment filed under Rattus norvegicus [5], in the experiment filed under Rattus norvegicus [7], in the experiment filed under Rattus norvegicus [9], in the experiment listed under Rattus norvegicus [11] and in the experiment listed under Rattus norvegicus [15] was inactive. The result in the experiment filed under Rattus norvegicus [18] and in the experiment listed under Rattus norvegicus [22] was inactive. Besides, the inhibition result (in [3]; in the experiment listed under Rattus norvegicus [4]; in the experiment listed under Rattus norvegicus [6]; in experiment [10]; in the experiment filed under Rattus norvegicus [12]; in the experiment listed under Rattus norvegicus [13]) was “inactive” each time. Also, the inhibition result in the experiment listed under Rattus norvegicus [14] and in the experiment filed under Rattus norvegicus [17] was “inactive” each time. Besides, in [1], the dissociation constant (Kd) was found to be 0.64 mM. Moreover, the inhibition entry in [8] is “Active”. Besides, the result in the experiment listed under Rattus norvegicus [16] and in the experiment filed under Rattus norvegicus [21] was Active. The Time in the experiment listed under Rattus norvegicus [19] is 219.5 to 266.5 s; in the experiment listed under Rattus norvegicus [20], 316.66 to 353.33 s.
